Like-named read-outs stand apart in the source and are kept apart here.
Columns and labels:
[1] = molecular target: T1, Tat (Human immunodeficiency virus type 1 group M subtype B, UniProt P04608); experiment: Tat-inhibiting effect (reporter plasmid and Tat activator plasmid cotransfected into COS-7 cells); format: cell-based, HIV
T1 construct: expressed in transfected cells; host or cells: COS-7 cells
Protocol: After a reporter plasmid and an activator plasmid of Tat were cotransfected into COS-7 cells by a DEAE dextran method to culture the cells at 37° C. for 24 hours in the presence of 5% CO2, the transfectant was added to 96-well microplates, in which a test agent had been placed in advance, in a proportion of 1×10^4 cells/well, followed by reculture at 37° C. for 3 days in the presence of 5% CO2. A supernatant (50 μl) of each of the cultures was then added to another 96-well microplate in which p-nitrophenyl phosphate as a substrate and a buffer had been placed, followed by incubation at 37° C. for 3 hours. The variation in absorbance at 405 nm due to p-nitrophenol formed was then measured to determine the presence of a Tat-inhibiting effect.

[2] = tested on: primarily infected CEM cells; experiment: Effect on growth of primarily infected CEM cells; format: cell-based, HIV-1; settings: concentrations not greater than 500 μM
Protocol: (§1) Cells were collected from a culture solution (1.0×10^6 cells/ml, 108 ml) of CEM in a logarithmic growth phase by centrifugation (260×g, 5 minutes). An HIV-1 virus solution (12×10^5 TCID50) was added to the cells to culture them at 37° C. for 24 hours in 180 ml of a medium, thereby adsorbing the virus thereon. After a culture supernatant containing the virus was then removed by centrifugation (260×g, 5 minutes), and the residue was washed three times with 50 ml of an RPMI-1640 basal medium under centrifugation (260×g, 5 minutes), media separately containing predetermined concentrations of test agents were used to prepare cell suspensions (1×10^5 cells/ml, 50 ml×2 sample for each concentration of the test agents). Each of these cell culture solutions was collected in 25-ml portions every 24 hours until 96 hours passed by. The collected solutions were subjected to SDS-PAGE, followed by western immunoblotting to detect virus-constituting proteins. Incidentally, an HIV-1 positive serum was used as a primary antibody.

[3] = tested on: Molt-4/IIIB; experiment: Anti-HIV activity in persistently infected Molt-4/IIIB cells; format: cell-based; settings: Human immunodeficiency virus 1, IIIB, read-out: Anti-HIV activities (inhibition %)
Protocol: (§2) Predetermined concentrations of test agents were separately added to cells (2×10^5 cells/ml, 10 ml) persistently infected with HIV in a logarithmic growth phase to culture them for 96 hours, thereby counting the number of living cells and the number of killed cells every 24 hours by a trypan blue dye exclusion test to determine the cytotoxic effects of the test agents on the cells. A viral infectious titer (TCID50 /ml) in each of the culture solutions incubated for 96 hours was determined by 72-hour culture using, as an index, the giant cell formation of MT-4 cells. As a control, culture was conducted in a medium free of any agent. An anti-HIV activity (inhibition %) was determined in accordance with the following equation. [formula]

[4] = tested on: CEM/LAV-1, H9 /MN and Molt-4/IIIB cells; experiment: Anti-HIV activity, summary over CEM/LAV-1, H9 /MN and Molt-4/IIIB cells; format: cell-based; settings: 500 μM
Protocol: as §2

[5] = tested on: H9 /MN; experiment: Anti-HIV activity in persistently infected H9 /MN cells; format: cell-based
Protocol: as §2

[6] = tested on: CEM/LAV cells; experiment: Cytotoxicity test, CEM/LAV cells persistently producing HIV-1 (trypan blue dye exclusion); format: cell-based; settings: 500 μM
Protocol: (§3) Culture solutions (10 ml) of CEM and a strain CEM/LAV persistently producing HIV-1, both, in a logarithmic growth phase were prepared with media containing various concentrations of a test agent so as to give a concentration of 2.5×10^5 cells/ml, followed by culture at 37° C. in the presence of 5% CO2. After pipetting each cells culture solution every 24 hours, it was collected to count the number of living cells and the number of killed cells by a trypan blue dye exclusion test.

[7] = tested on: HIV-1 in primarily infected CEM cells; experiment: Viral infectious titer in culture supernatant of primarily infected CEM cells; format: cell-based; settings: Human immunodeficiency virus 1, CCRF-CEM, % of a control
[8] = tested on: CEM cells; experiment: Cytotoxicity test, CEM cells (trypan blue dye exclusion); format: cell-based; settings: concentrations not greater than 500 μM
Protocol: as §3

[9] = tested on: HIV-constituting proteins (p24, p41); experiment: Detection of HIV-constituting proteins by western immunoblotting, primarily infected CEM cells; format: cell-based, HIV-1; settings: 500 μM
Protocol: as §1

[10] = tested on: U937 /RF; experiment: Anti-HIV activity in persistently infected U937 /RF cells; format: cell-based
Protocol: as §2

[11] = tested on: CEM/LAV-1; experiment: Anti-HIV activity in persistently infected CEM/LAV-1 cells; format: cell-based
Protocol: as §2

[12] = tested on: AIDS; settings: clinical use; cited from earlier work
[13] = COS-7, control = 100, read-out: Specific activity (%) (Average ± SE)
[14] = Human immunodeficiency virus 1, 125 μM, 96 hours, read-out: Anti-HIV activities (inhibition %)
[15] = Human immunodeficiency virus 1, 500 μM, 96 hours, read-out: Anti-HIV activities (inhibition %)
[16] = Human immunodeficiency virus 1, 50 μM, 96 hours, read-out: Anti-HIV activities (inhibition %)
[17] = Human immunodeficiency virus 1, U-937, 50 μM, 96 hours, read-out: Anti-HIV activities (inhibition %)
[18] = Human immunodeficiency virus 1, 96 h, read-out: Anti-HIV activities (inhibition %)

T1 sequence (P04608 whole entry): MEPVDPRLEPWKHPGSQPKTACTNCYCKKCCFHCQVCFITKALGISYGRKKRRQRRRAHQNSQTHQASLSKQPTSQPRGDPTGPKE

**Q.** What does the source list for `O=C(O)CCCCC1CCSS1` (stereo not drawn) [α-Lipoic acid]?
**A.** activity at 62.5 µM ([1]; COS-7, 62.5 μM, control = 100, read-out: Specific activity (%) (Average ± SE)): 78.8 ± 7.4%; activity at 125 µM [1, 13]: 41.6 ± 9.9%; activity at 250 µM [1, 13]: 17.5 ± 2.1%

**Q.** With `CC(=O)N[C@@H](CS)C(=O)O` [N-Acetylcysteine] as the molecule, how does the activity at 125 µM [1, 13] read?
**A.** 107 ± 13%

**Q.** What about the activity at 250 µM [1, 13] of the same molecule?
**A.** 92 ± 8%

**Q.** What about the activity at 500 µM [1, 13] of the same molecule?
**A.** 81.5 ± 5.7%

**Q.** Which results are given for `CC(=C(CCO)SSC(CCO)=C(C)N(C=O)Cc1cnc(C)nc1N)N(C=O)Cc1cnc(C)nc1N` [Thiamine disulfide, thiamine disulfide]?
**A.** activity at 125 µM [1, 13]: 92.3 ± 6.1%; activity at 250 µM [1, 13]: 64.4 ± 6.1%; activity at 500 µM [1, 13]: 36.1 ± 6.3%; inhibition of the activity of Tat ([1]; concentrations of 125-500 μM): inhibited the activity of Tat in dependence on dose; effect on growth of primarily infected CEM cells [2]: did not affect the growth; inhibition at 125 µM ([3]; MOLT-4, 125 μM, 96 hours): 80%; inhibition at 500 µM ([3]; MOLT-4, 500 μM, 96 hours): 97%; anti-HIV activity (in words) [4]: marked anti-HIV activities; inhibition at 125 µM [5, 14]: 90%; inhibition at 500 µM [5, 15]: 99%; effect on growth and proliferation of CEM/LAV cells [6]: clearly inhibited the growth and proliferation; number of killed cells [6]: the number of killed cells did not increase; activity at 500 µM [7]: 0.3%; effect on growth and proliferation of CEM cells [8]: did not affect the growth and proliferation; formation of p24 and p41 protein in culture supernatant [9]: neither p24 protein nor p41 protein was formed; inhibition at 125 µM ([10]; Human immunodeficiency virus 1, U-937, 125 μM, 96 hours, read-out: Anti-HIV activities (inhibition %)): 0%; inhibition at 500 µM ([10]; Human immunodeficiency virus 1, U-937, 500 μM, 96 hours, read-out: Anti-HIV activities (inhibition %)): 80%; anti-HIV activity (in words) ([10]; concentration not given): marked anti-HIV activities; inhibition at 125 µM [11, 14]: 51%; inhibition at 500 µM [11, 15]: 90%

**Q.** For `CC(=C(CCOC(=O)C(C)C)SSC(CCOC(=O)C(C)C)=C(C)N(C=O)Cc1cnc(C)nc1N)N(C=O)Cc1cnc(C)nc1N` [Bisibutiamine, bisibutiamine], which inhibition at 50 µM ([3]; MOLT-4, 50 μM, 96 hours) is on record?
**A.** 0%

**Q.** And the “anti-HIV activity (in words)” value ([5]; 50 μM)?
**A.** marked anti-HIV activities

**Q.** And the inhibition at 50 µM [5, 16]?
**A.** 60%

**Q.** What about the inhibition at 50 µM [10, 17] of the same molecule?
**A.** 0%

**Q.** What about the inhibition at 50 µM [11, 18] of the same molecule?
**A.** 0%

**Q.** Which inhibition at 50 µM ([3]; MOLT-4, 96 h) does the source give for `CC(=C(CCO)SSCC1CCCO1)N(C=O)Cc1cnc(C)nc1N` (stereo in doubt) [Fursultiamine, fursultiamine] here?
**A.** 0%

**Q.** What about the “anti-HIV activity (in words)” value ([5]; 50 μM) of the same molecule?
**A.** marked anti-HIV activities

**Q.** What about the inhibition at 50 µM [5, 18] of the same molecule?
**A.** 96%

**Q.** What about the “anti-HIV activity (in words)” value ([10]; 50 μM) of the same molecule?
**A.** marked anti-HIV activities

**Q.** And the inhibition at 50 µM ([10]; Human immunodeficiency virus 1, U-937, 96 h, read-out: Anti-HIV activities (inhibition %))?
**A.** 60%

**Q.** And the “anti-HIV activity (in words)” value ([11]; 50 μM)?
**A.** marked anti-HIV activities

**Q.** And the inhibition at 50 µM [11, 16]?
**A.** 95%

**Q.** Which inhibition at 50 µM ([3]; MOLT-4, 50 μM, 96 hours) does the source give for `C=CCSSC(CCO)=C(C)N(C=O)Cc1cnc(C)nc1N` [Alitiamine, alitiamine] here?
**A.** 0%

**Q.** And the inhibition at 50 µM [5, 16]?
**A.** 0%

**Q.** What about the inhibition at 50 µM [10, 17] of the same molecule?
**A.** 0%

**Q.** And the “anti-HIV activity (in words)” value ([11]; 50 μM)?
**A.** marked anti-HIV activities

**Q.** For `Cc1cn([C@H]2C[C@H](N=[N+]=[N-])[C@@H](CO)O2)c(=O)[nH]c1=O` [AZT, azidothymidine], which side effects [12] is on record?
**A.** headache, gastrointestinal disorders and a myelodepresant effect

**Q.** For `N[C@@H](CCC(=O)N[C@@H](CS)C(=O)NCC(=O)O)C(=O)O` [Glutathione], which activity at 250 µM [1, 13] is on record?
**A.** 110 ± 17%
